According to PMC12851022, “Targeting the Spliceosomal Protein USP39 Through Allosteric Ligands and PROTAC‐Induced Degradation” (Angewandte Chemie (International Ed. in English), 2025):
pIC50: −log10 of the molar value.

Columns and labels:
USP39_T2 [1] = biological target: T1, USP39_T2 (Homo sapiens, UniProt Q53GS9); test: Competitive FP assay, tracer USP39_B1-FITC; type: binding; settings: for Binding in competitive FP screening normalized to USP39_B1: 5 µM compound concentration; for pIC50: tracer USP39_B1-FITC, protein USP39_T2
T1 construct: USP39_T2 (ZNF domain only); made in house
T1 sequence (Q53GS9 103-200 limits assumed): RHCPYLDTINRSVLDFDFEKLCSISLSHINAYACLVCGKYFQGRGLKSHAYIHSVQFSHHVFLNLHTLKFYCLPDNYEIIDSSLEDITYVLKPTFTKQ
Excerpt: The compound label is taken from plot legend entries such as 'WT_USP39_B1'. / Panel e: the picture prints no compound label. WT, M1 and M2 are protein variants (targets), not substances.
To systematically investigate structure–activity relationships, we synthesized a series of derivatives by modifying the phenyl ring, either by substituting the chlorine atom with other halogens or varying the substitution pattern (Figure SI2B).
Figure 3 Design and in vitro characterization of USP39‐targeting PROTACs. a) Synthetic strategy for PROTAC synthesis. […] USP39_B1‐FITC served as the tracer, while USP39_T2 acted as the protein. The results were obtained from two independent experiments, each performed in triplicates and are presented as mean ± SD. e) Predicted results from AI‐Based DMPK analysis. MW: Molecular weight; HBA: H‐Bond acceptors; HBD: H‐Bond donors; Con_LogP: Consensus LogP; RotB: Rotatable Bonds; TPSA: Topological polar surface area; ESOL_LogS: predicted aqueous solubility (Log10 mol L^−1); GI: Gastrointestinal absorption; BBB: Blood–brain barrier. A comprehensive overview of all PROTACs and related data is available in Table SI5 of the Supporting Information.

[2] = biological target: His-tagged USP39 and GST-tagged VHL (Homo sapiens, UniProt P40337+Q53GS9); test: Alpha assay of ternary complex formation; type: binding
His-tagged USP39 and GST-tagged VHL, sequence (Q53GS9 whole entry): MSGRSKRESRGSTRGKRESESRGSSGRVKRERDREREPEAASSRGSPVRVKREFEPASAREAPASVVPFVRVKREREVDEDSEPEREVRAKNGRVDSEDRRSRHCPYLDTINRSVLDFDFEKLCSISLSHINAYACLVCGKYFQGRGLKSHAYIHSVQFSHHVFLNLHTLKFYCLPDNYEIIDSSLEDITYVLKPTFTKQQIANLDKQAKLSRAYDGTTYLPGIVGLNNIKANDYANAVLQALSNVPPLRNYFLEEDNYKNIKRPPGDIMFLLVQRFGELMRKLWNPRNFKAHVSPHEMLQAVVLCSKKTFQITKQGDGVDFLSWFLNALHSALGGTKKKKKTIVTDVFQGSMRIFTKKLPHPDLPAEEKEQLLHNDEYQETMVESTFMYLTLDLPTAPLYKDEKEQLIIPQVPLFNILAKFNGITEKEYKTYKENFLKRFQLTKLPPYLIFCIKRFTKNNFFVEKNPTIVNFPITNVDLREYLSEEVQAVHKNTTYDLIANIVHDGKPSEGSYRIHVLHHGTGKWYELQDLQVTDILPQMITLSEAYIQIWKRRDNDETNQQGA
His-tagged USP39 and GST-tagged VHL, sequence (P40337 whole entry): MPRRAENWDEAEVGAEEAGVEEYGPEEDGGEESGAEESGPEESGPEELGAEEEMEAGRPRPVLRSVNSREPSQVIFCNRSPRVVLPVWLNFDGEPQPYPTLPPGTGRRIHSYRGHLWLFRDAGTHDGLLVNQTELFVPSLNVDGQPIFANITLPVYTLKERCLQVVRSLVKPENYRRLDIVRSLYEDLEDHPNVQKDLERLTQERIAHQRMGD

USP39_T2 [3] = biological target: T1, USP39_T2; test: Isothermal titration calorimetry (ITC); type: binding
FKBP12^F36V-USP39 [4] = biological target: T2, FKBP12^F36V-USP39 (Homo sapiens, UniProt P62942+Q96SW2, F37V); test: dTAG system degradation of FKBP12^F36V-USP39; type: cell-based
T2 construct: expressed in transfected cells
T2 sequence (P62942 whole entry F37V): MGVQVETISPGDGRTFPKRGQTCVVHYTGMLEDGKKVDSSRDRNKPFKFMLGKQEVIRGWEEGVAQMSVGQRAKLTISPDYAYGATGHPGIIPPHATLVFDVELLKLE
T2 sequence (Q96SW2 whole entry): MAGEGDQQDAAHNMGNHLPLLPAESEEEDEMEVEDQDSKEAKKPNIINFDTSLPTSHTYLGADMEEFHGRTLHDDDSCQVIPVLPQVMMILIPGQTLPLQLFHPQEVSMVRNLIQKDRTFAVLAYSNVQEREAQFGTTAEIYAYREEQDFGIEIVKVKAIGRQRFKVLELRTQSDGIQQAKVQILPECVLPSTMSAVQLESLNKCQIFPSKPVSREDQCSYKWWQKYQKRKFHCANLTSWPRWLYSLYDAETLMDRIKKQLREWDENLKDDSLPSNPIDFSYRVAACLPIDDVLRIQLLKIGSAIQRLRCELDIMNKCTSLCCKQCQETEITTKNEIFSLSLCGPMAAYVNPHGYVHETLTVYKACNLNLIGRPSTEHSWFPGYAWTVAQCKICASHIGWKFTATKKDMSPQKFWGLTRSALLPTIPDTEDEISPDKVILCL
Excerpt: (§1) To investigate whether USP39 can be degraded through the ubiquitin‐proteasome system, we utilized the dTAG system by fusing FKBP12^F36V to the N‐terminus of USP39 (Figure SI1A).^[ [22] ^]

FKBP12^F36V-USP39 [5] = biological target: T3, FKBP12^F36V-USP39 (Homo sapiens, UniProt, F37V); test: dTAG system degradation of FKBP12^F36V-USP39; type: cell-based
T3 construct: expressed in transfected cells
T3 sequence (P62942 whole entry F37V): as the sequence (P62942 whole entry F37V) above
T3 sequence (Q96SW2 whole entry, further chain): as the sequence (Q96SW2 whole entry) above
Excerpt: as §1

SMILES: CCOC(=O)c1csc(Nc2ccccc2Cl)n1 [C4]
- Binding in competitive FP screening normalized to USP39_B1 (USP39_T2 [1]): failed to show measurable binding

SMILES: CCOC(=O)c1csc(Nc2ccc(Cl)cc2)n1 [USP39_B1]
- Inhibitory effect in competitive FP assay (USP39_T2 [1]; at 50 µM, USP39_T2, tracer USP39_B1-FITC): weak inhibitory effect
- pIC50 (USP39_T2 [1]): < 4.30
- Kd of ternary complex formation (Alpha assay) [2]: no clear interaction was observed
- Kd by ITC (USP39_T2 [3]): did not yield a clear binding isotherm

SMILES: CCOC(=O)c1csc(Nc2cccc(F)c2)n1 [USP39_B3]
- Binding in competitive FP screening normalized to USP39_B1 (USP39_T2 [1]): significantly improved binding affinity
- pIC50 (USP39_T2 [1]): 5.93

SMILES: CC[C@H](C(=O)N1CCCC[C@H]1C(=O)O[C@H](CCc1ccc(OC)c(OC)c1)c1ccccc1OCC(=O)NCCCCCCOc1cccc2c1C(=O)N(C1CCC(=O)NC1=O)C2=O)c1cc(OC)c(OC)c(OC)c1 (stereo partly drawn) [dTAG13]
- Time to degradation of FKBP12^F36V-USP39 (FKBP12^F36V-USP39 [4]): ≤ 24 h
- Effect on endogenous USP39 levels (FKBP12^F36V-USP39 [5]): without affecting
